The values below come from ChEMBL document CHEMBL5726562, “Pyridinyl and fused pyridinyl triazolone derivatives” (2017).

The structures appear in SMILES notation. A value given as a limit tells only on which side of the number the result lay.

The assay has as its target Tyrosine-protein kinase BTK (Homo sapiens, UniProt Q06187). The experiment in a line: Inhibition Assay: The inhibitory properties of compounds relative to BTK is determined using a black 384-well-plate format in a buffer which contains 50 mM Hepes, 10 mM NaCl, 10 mM MgCl2, 0.2 mM EDTA, 0.01% Brij35®, 1 mM DTT, and 0.1 mg/mL BSA at pH 7.3. The test compound is prepared in DMSO using 2-fold serial dilutions for 11 data points, which are added to the buffer so that each dilution contains 3% DMSO. […] The reaction mixtures are incubated at room temperature for 60 minutes and then quenched by adding 25 μL of 50 mM EDTA. To quantify the fluorescent-labeled substrate and product following reaction, the test plate is loaded on a Caliper LC-3000, which measures percent of conversion by microfluidic-based separation.

Chain of Tyrosine-protein kinase BTK (Q06187 whole entry): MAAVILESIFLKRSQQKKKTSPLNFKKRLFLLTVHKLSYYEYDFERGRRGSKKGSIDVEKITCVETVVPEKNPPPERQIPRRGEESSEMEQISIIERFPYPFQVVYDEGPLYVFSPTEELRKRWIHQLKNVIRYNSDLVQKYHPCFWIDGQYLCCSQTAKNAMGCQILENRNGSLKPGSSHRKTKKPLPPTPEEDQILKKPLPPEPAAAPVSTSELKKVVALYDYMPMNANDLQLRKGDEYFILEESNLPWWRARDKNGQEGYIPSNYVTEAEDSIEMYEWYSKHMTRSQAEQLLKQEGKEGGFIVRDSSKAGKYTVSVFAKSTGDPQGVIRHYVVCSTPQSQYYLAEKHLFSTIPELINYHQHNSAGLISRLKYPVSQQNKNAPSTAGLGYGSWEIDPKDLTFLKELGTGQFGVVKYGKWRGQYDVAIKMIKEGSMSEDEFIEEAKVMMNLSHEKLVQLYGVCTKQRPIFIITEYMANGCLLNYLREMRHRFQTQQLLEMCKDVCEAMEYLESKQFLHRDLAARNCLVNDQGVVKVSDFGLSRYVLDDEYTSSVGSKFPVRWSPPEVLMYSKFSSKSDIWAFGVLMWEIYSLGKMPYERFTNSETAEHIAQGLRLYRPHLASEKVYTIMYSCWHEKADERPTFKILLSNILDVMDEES

A word on the IC50: it is the midpoint of a concentration-inhibition curve. With `C=CC(=O)N1CC[C@H](Oc2nc(-c3n[nH]c(=O)[nH]3)cc3cccc(F)c23)C1`, the IC50 was less than 1.26 nM. With `C=CC(=O)N1CC[C@H](Oc2nc(-c3n[nH]c(=O)[nH]3)cc3ccc(Cl)cc23)C1`, the IC50 is less than 1.26 nM.
